# Test results from US20250049737A1, “Lauflumide and derivatives thereof for treating chronic fatigue syndrome and myalgic encephalomyelitis/chronic fatigue syndrome (ME/CFS)” (NLS Pharmaceutics AG, priority 2021, published 2025).
# Entries after “also recorded” stand apart in the source; their conditions may differ.
# Key:
# [1] = system: Rat model of severe fatigue; experiment: Rat model of severe fatigue (sleep deprivation): recording of circadian locomotor activity; type: in vivo, Rats, Sprague-Dawley; conditions: for Difference of distance travelled between the dark phase and the light phase / Distance travelled during the 12-h dark phase / Distance travelled during the 12-h light phase / Total distance travelled during the full 24-h period: days 1, 2 and 3
# Protocol: In the following example, Lauflumide is also called NLS-4.
# Animals are individually housed in transparent polycarbonate cages (1354G Eurostandard Type IV cage, Tecniplast, Italy, 595×380×200 mm, floor area=1820 cm^2) filled with water (23±1° C.) to a height of 1.5 cm. A platform (5 cm height, 6.5 cm diameter) was located at the center of the cage. Animals can stay on the platform in order to stay dry but falls from it when it falls in deep sleep. […] During this period, animals were placed in a modified light/dark cycle with variable durations of the light and dark periods which change every day. This procedure is intended to disrupt the circadian rhythm.
# The Sham group was housed in normal condition for the same period under a 12/12 h light/dark cycle.
# After the end of the fatigue period, animals were placed in transparent polycarbonate cages (Type E, Iffa Credo, France, 450×300×200 mm, floor area=1032 cm^2), under a 12 h/12 h cycle. Cages were covered with a stainless steel grid in which food and a bottle are placed. A stainless steel removable divider separated food and water. The cages were placed in infrared photobeam detection systems (Acti-track, LSI Leticca, Panlab) allowing to record continuously the distance travelled in the cage. Locomotor activity was recorded continuously for 3 days. The test started at the beginning of the dark phase of the light/dark cycle.
# Seventy-six animals were subjected to the fatigue procedure and to the tests as described above. Twelve animals (Sham group) were housed in standard condition.
# (§1) After the end of the Fatigue procedure, animals were divided into 10 groups which received before tests (total: 3 administrations) a per-os (p.o., oral gavage) administration of: • Sham (no fatigue) group (N=12): Vehicle. • Control group (N=11): Vehicle. • Modafinil 32 (N=10): modafinil (32 mg/kg). • Modafinil 64 (N=10): modafinil (64 mg/kg). • Modafinil 128 (N=5): modafinil (128 mg/kg). • NLS-4 16 (N=5): NLS-4 (16 mg/kg). • NLS-4 32 (N=10): NLS-4 (32 mg/kg). • NLS-4 64 (N=10): NLS-4 (64 mg/kg). • NLS-4 128 (N=10): NLS-4 (128 mg/kg). • NLS-4 256 (N=5): NLS-4 (256 mg/kg).
# Read-out: distance travelled during 24-h periods, 12-h dark and light periods and during 2-h periods.
# Data are expressed as mean and standard error of mean (SEM).
# Statistical analyses: Student's t test, repeated measure ANOVA.
# A difference is considered statistically significant at p≤0.05.
# [2] = Body weight during fatigue procedure and test period; type: in vivo, Rats, Sprague-Dawley; conditions: 32-128 mg/kg p.o.; test period
# Protocol: FIG. 26 Body weight (in g; mean, SEM) before the beginning and during the fatigue procedure (F-D1-7) and during the test period (T-D1-D3+24 h).
# Animals were weighed every day.
# as §1
# [3] = system: cocaine conditioned place preference; conditions: 128 mg/kg; rats; cited from earlier work
# [4] = 32 mg/kg p.o., vs. Control (fatigue) group
# [5] = 32 mg/kg p.o., vs. Sham (no fatigue) group
# [6] = 64 mg/kg p.o., vs. Control (fatigue) group
# [7] = 64 mg/kg p.o., vs. Sham (no fatigue) group
# [8] = 128 mg/kg p.o., vs. Control (fatigue) group
# [9] = 128 mg/kg p.o., vs. Sham (no fatigue) group
compound,measurement,setting,value
"NC(=O)C[S+]([O-])C(c1ccccc1)c1ccccc1 (stereo not drawn) [Modafinil, reference compound]",Motor activity during the first 2-h periods following the dosing,[1]; 32 mg/kg p.o.,increased
same,Activity during the following 22 h,"[1]; 32 mg/kg p.o., after the first 2-h period following dosing",few or no modification
same,Difference of distance travelled between the dark phase and the light phase,[1]; [4],not significantly different
same,Distance travelled during the 12-h dark phase,[1]; [4],not significantly different
same,Distance travelled during the 12-h light phase,[1]; [4],not significantly different
same,Total distance travelled during the full 24-h period,[1]; [4],not significantly different
same,Difference of distance travelled between the dark phase and the light phase,[1]; [5],not lower than the Sham group on days 1 and 2 only
same,Distance travelled during the 12-h dark phase,[1]; [5],lower than the Sham group during the dark phase on days 1 and 2 only
same,Distance travelled during the 12-h light phase,[1]; [5],higher than the Sham group during the light phase on day 1 only
same,Total distance travelled during the full 24-h period,[1]; [5],not significantly different
same,Motor activity during the first 2-h periods following the dosing,[1]; 64 mg/kg p.o.,increased
same,Difference of distance travelled between the dark phase and the light phase,[1]; [6],higher; also recorded: increased
same,Distance travelled during the 12-h dark phase,[1]; [6],higher
same,Distance travelled during the 12-h light phase,[1]; [6],not significantly different
same,Total distance travelled during the full 24-h period,[1]; [6],higher
same,Difference of distance travelled between the dark phase and the light phase,[1]; [7],not significantly different
same,Distance travelled during the 12-h dark phase,[1]; [7],not significantly different
same,Distance travelled during the 12-h light phase,[1]; [7],not significantly different
same,Total distance travelled during the full 24-h period,[1]; [7],not significantly different
same,Difference of distance travelled between the dark phase and the light phase,[1]; [8],higher for the Modafinil 128 group than for the Control group on days 1 and 2 only; also recorded: increased
same,Distance travelled during the 12-h dark phase,[1]; [8],higher for the Modafinil 128 group than for the Control group during the dark period on days 1 and 2 only
same,Distance travelled during the 12-h light phase,[1]; [8],not significantly different
same,Total distance travelled during the full 24-h period,[1]; [8],higher for the Modafinil 128 group than for the Control group on day 1 only
same,Distance travelled during the 12-h dark phase,[1]; [9],increase the distance travelled in comparison with the Sham group during the dark phase on day 1
same,Total distance travelled during the full 24-h period,[1]; [9],increase the distance travelled in comparison with the Sham group on day 1
same,Weight loss induced by the fatigue procedure,[2],not modified
same,Cocaine conditioned place preference following extinction,[3],strongly reinstated
